In patent US6864373B2, “Stable amorphous celecoxib composite and process therefor” (Pharmacia Corporation, priority 2002, dated 2005):
Converted amounts (≈) assume the structure as drawn.

Assay: Solubility of celecoxib in aqueous media
Type: physicochemical
Procedure: However, celecoxib presents certain challenges for formulation as a rapid-onset dosage form, particularly as a rapid-onset oral dosage form. For example, celecoxib has very low solubility in aqueous media (about 2 to about 5 μg/ml) and therefore is not readily dissolved and dispersed for rapid absorption in the gastrointestinal tract when administered orally, for example in tablet or capsule form. In addition, celecoxib has a relatively high dose requirement further increasing difficulties of providing a sufficient therapeutically effective dose for rapid absorption.

solubility: 2 to 5 µg/mL (≈ 5.24 to 13.1 µM)
Structure (SMILES): Cc1ccc(-c2cc(C(F)(F)F)nn2-c2ccc(S(N)(=O)=O)cc2)cc1 [celecoxib, 4-[5-(4-methylphenyl)-3-(trifluoromethyl)-1H-pyrazol-1-yl]benzenesulfonamide]
